Consider 14 compounds from patent US20130023494A1, “MODULATORS OF THE GPR119 RECEPTOR AND THE TREATMENT OF DISORDERS RELATED THERETO” (ARENA PHARMACEUTICALS, INC., priority 2010, published 2013).

One may read the EC50 as the concentration that produces a half-maximal response. The low end stands for a more potent agent, the high end for a less potent agent.

In one assay the target is T1, hGPR119 (Homo sapiens, UniProt Q8TDV5).
T1 construct: expressed in transfected cells
T1 sequence (Q8TDV5 2-335 limits assumed): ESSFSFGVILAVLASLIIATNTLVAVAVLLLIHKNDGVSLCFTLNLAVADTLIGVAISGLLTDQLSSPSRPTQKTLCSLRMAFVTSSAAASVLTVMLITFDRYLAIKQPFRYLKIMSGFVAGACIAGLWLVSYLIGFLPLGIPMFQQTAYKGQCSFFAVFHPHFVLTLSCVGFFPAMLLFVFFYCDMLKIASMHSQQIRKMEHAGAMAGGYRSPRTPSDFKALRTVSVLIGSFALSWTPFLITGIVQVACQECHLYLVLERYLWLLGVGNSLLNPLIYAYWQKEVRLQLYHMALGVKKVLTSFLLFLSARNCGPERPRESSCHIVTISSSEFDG
Put plainly: HTRF cAMP assay in CHO-K1 cells stably expressing the GPR119 receptor. The conditions noted are these: 1 h room temperature. In kind it is cell-based. The protocol:
GPR119 agonists were evaluated in an HTRF® cAMP detection assay according to the manufacturer's instructions (Cisbio, cAMP Dynamic 2 Assay Kit; #62AM4PEJ) using CHO-K1 cells stably expressing the GPR119 receptor. Briefly, CHO-K1 cells were transduced with a lentiviral vector encoding the nucleotide sequence of GPR119 (NCBI mRNA and protein reference sequences: NM_178471.2 & NP_848566, (GPR119 has also been referred to as Glucose-Dependent Insulinotropic Receptor (GDIR)). The N-terminus of the GPR119 nucleotide sequence was modified to replace the first, methionine-coding codon with a nucleotide sequence coding for a standard, nine amino acid, hemagglutinin tag. Following transduction, cells expressing the GPR119 receptor were isolated and a single clone was isolated following standard dilution-cloning procedures. On the day of the assay, cultured CHO-GPR119 cells were harvested, suspended in assay buffer and plated into 384-well assay plates (PerkinElmer Proxiplate #6008280) at a density of 2,000 cells per well. A cAMP standard curve was added to each plate. Test compounds were solubilized in DMSO, serially diluted in DMSO and then diluted in assay buffer before adding to the cells. Test compounds were evaluated in triplicate, using 10-point, 5-fold serial dilutions starting at 10 μM. The final DMSO concentration in the assay was 0.5%. Compounds and cells were incubated for 1 h at room temperature and then detection reagents were added to each well (cAMP-D2 in cell lysis buffer, followed by europium cryptate-labeled anti-cAMP antibody). Plates were then incubated at room temperature for 1 h prior to reading. Time-resolved fluorescence measurements were collected on PerkinElmer Envision™ or BMG Pherastar™ microplate readers. The compound N-(2-fluoro-4-(methylsulfonyl)phenyl)-6-(4-(3-isopropyl-1,2,4-oxadiazol-5-yl)piperidin-1-yl)-5-nitropyrimidin-4-amine was used as a positive control in each runset while assay buffer containing 0.5% DMSO was used as the negative control. The HTRF® assay was used to determine EC50 values for GPR119 agonists.
(In TR-FRET formats the signal depends on donor and acceptor labels being close together.)

The subject of a further assay is incretin hormone GIP. Put plainly: Incretin hormone GIP release in male 129SVE mice (Total GIP ELISA). The format is in vivo, mouse. The following applies: 10 mpk p.o., plasma sample after 45 min, PET vehicle 72.5. As to the method:
Male 129SVE mice (approximately 8-week old) were fasted for 18 h and randomly grouped (n=6) to receive a GPR119 agonist (Compound 28, Compound 73, Compound 71, Compound 62, and Compound 30) at 10 mpk dose (mg/kg body weight). Compounds were delivered orally via a gavage needle (p.o., volume 4 mL/kg), and after 45 min a blood sample was collected to determine plasma total GIP levels. A separate group received vehicle (PET: 80% PEG:10% Ethanol:10% Tween80™) as control. Plasma GIP levels were determined using a Total GIP ELISA kit from Millipore.

For the next assay, the system named is male diabetic ZDF rats. Nature of the assay: Oral glucose tolerance test (oGTT) in male diabetic ZDF rats. In kind it is in vivo, rat. The conditions noted are these: for % Inhibition of Glucose Excursion (dose: mg/kg): ZDF rats, glucose excursion AUC reduction relative to vehicle; for blood glucose after challenge with glucose: diabetic ZDF rats. The protocol: FIGS. 1 to 4, 16 and 17 show results of three independent experiments with three representative GPR119 agonists of the present invention, namely, Compound 28, Compound 62, and Compound 83. In each experiment, male ZDF rats (approximately 10-week old) were fasted for 18 hours and randomly grouped (n=6) to receive a GPR119 agonist (Compound 28, Compound 62, or Compound 83) at indicated doses (mg/kg body weight). Compounds were delivered orally via a gavage needle (p.o., volume 4 mL/kg) 1 h prior to glucose bolus (3 g/kg) (time=−60 min in FIGS. 1, 3, and 16), with a separate group receiving vehicle (20% hydroxypropyl-beta-cyclodextrin) as control in each experiment. At time 0 min the glucose bolus was administered. Levels of blood glucose were assessed using a glucometer (One-Touch Ultra™, LifeScan) at time −60 min (prior to compound administration), at 0 min (time when glucose bolus was given), and at 30, 60, 90, 120 min post glucose bolus. The plasma glucose excursion curves are given in FIGS. 1, 3, and 16, and glucose excursion AUC (area under the curve) reductions in compound treated animals relative to vehicle control are given in FIGS. 2, 4, and 17, and in Table 1.

Where [1] appears, read: 10 mg/kg p.o. 1 h prior to glucose bolus (3 g/kg).

SMILES strings stand for the structures.

The compound `CC(C)(C)OC(=O)N1CCC(O[C@H]2CC[C@@H](Oc3ccc(S(C)(=O)=O)cc3)CC2)CC1` [Compound 1, tert-butyl 4-((1s,4s)-4-(4-(methylsulfonyl)phenoxy)cyclohexyloxy)piperidine-1-carboxylate] yielded a concentration for a half-maximal effect (EC50) at hGPR119 of 266 nM. This lies in the sub-micromolar range.

In turn, `CC(C)(C)OC(=O)N1CCC(O[C@H]2CC[C@H](Oc3ccc(S(C)(=O)=O)cc3F)CC2)CC1` [Compound 5, tert-butyl 4-((1r,4r)-4-(2-fluoro-4-(methylsulfonyl)phenoxy)cyclohexyloxy)piperidine-1-carboxylate] displayed a half-maximal effective concentration (EC50) on hGPR119 of 8 nM.

As for `CC(C)OC(=O)N1CCC(O[C@H]2CC[C@H](Oc3ccc(S(C)(=O)=O)cc3F)CC2)CC1` [Compound 13, isopropyl 4-((1r,4r)-4-(2-fluoro-4-(methylsulfonyl)phenoxy)cyclohexyloxy)piperidine-1-carboxylate], a half-maximal response at hGPR119 (EC50) required 19 nM.

In the case of `CC(C)(F)c1noc(N2CCC(O[C@H]3CC[C@H](Oc4cnc(S(C)(=O)=O)cn4)CC3)CC2)n1` [Compound 30, 3-(2-fluoropropan-2-yl)-5-(4-((1r,4r)-4-(5-(methylsulfonyl)pyrazin-2-yloxy)cyclohexyloxy)piperidin-1-yl)-1,2,4-oxadiazole], the “Total GIP, pg/mL (dose, mg/kg)” value in the assay with incretin hormone GIP is on record as 375.7 pg/mL. `CC(C)(C)OC(=O)CN1CCC(O[C@H]2CC[C@H](Oc3ccc(S(C)(=O)=O)cc3)CC2)CC1` [Compound 35, tert-butyl 2-(4-((1r,4r)-4-(4-(methylsulfonyl)phenoxy)cyclohexyloxy)piperidin-1-yl)acetate] gave an EC50 at hGPR119 of 426 nM. This counts as sub-micromolar. Same read-out and setting: under `CCC(F)(F)C(=O)N1CCC(O[C@H]2CC[C@H](Oc3ccc(S(C)(=O)=O)cc3)CC2)CC1` [Compound 48, 2,2-difluoro-1-(4-((1r,4r)-4-(4-(methylsulfonyl)phenoxy)cyclohexyloxy)piperidin-1-yl)butan-1-one] stands 11 nM. With `CC(C)(F)c1nc(N2CCC(O[C@H]3CC[C@H](Oc4cnc(S(C)(=O)=O)cn4)CC3)CC2)no1` [Compound 62, 5-(2-fluoropropan-2-yl)-3-(4-((1r,4r)-4-(5-(methylsulfonyl)pyrazin-2-yloxy)cyclohexyloxy)piperidin-1-yl)-1,2,4-oxadiazole], the “% Inhibition of Glucose Excursion (dose: mg/kg)” value with male diabetic ZDF rats (3.3 mg/kg p.o. 1 h prior to glucose bolus (3 g/kg)) is 25.7% (3.3); in the assay with male diabetic ZDF rats (setting [1]), 32.7% (10); in the assay with male diabetic ZDF rats (30 mg/kg p.o. 1 h prior to glucose bolus (3 g/kg)) it was 48.0% (30). The “blood glucose after challenge with glucose” value with male diabetic ZDF rats is “lowered blood glucose”. For the same compound, the “Total GIP, pg/mL (dose, mg/kg)” value with incretin hormone GIP is on record as 368.5 pg/mL. The compound `C=C(C)c1noc(N2CCC(O[C@H]3CC[C@H](Oc4cnc(S(C)(=O)=O)cn4)CC3)CC2)n1` [Compound 69, 5-(4-((1r,4r)-4-(5-(methylsulfonyl)pyrazin-2-yloxy)cyclohexyloxy)piperidin-1-yl)-3-(prop-1-en-2-yl)-1,2,4-oxadiazole] registered an EC50 on hGPR119 of 31 nM.

`CS(=O)(=O)c1cnc(O[C@H]2CC[C@H](OC3CCN(C(=O)OC(CF)CF)CC3)CC2)cn1` [Compound 71, 1,3-difluoropropan-2-yl 4-((1r,4r)-4-(5-(methylsulfonyl)pyrazin-2-yloxy)cyclohexyloxy)piperidine-1-carboxylate]: in the assay with incretin hormone GIP, the “Total GIP, pg/mL (dose, mg/kg)” value is 379.8 pg/mL. Same read-out and setting: under `CCC(F)(F)C(=O)N1CCC(O[C@H]2CC[C@H](Oc3cnc(S(C)(=O)=O)cn3)CC2)CC1` [Compound 73, 2,2-difluoro-1-(4-((1r,4r)-4-(5-(methylsulfonyl)pyrazin-2-yloxy)cyclohexyloxy)piperidin-1-yl)butan-1-one] stands 195.2 pg/mL. As to `CC(C)OC(=O)N1CCC(O[C@H]2CC[C@H](Oc3cnc(-c4ccnnc4)cn3)CC2)CC1` [Compound 77, isopropyl 4-((1r,4r)-4-(5-(pyridazin-4-yl)pyrazin-2-yloxy)cyclohexyloxy)-piperidine-1-carboxylate], a half-maximal effect on hGPR119 (EC50) was put at 281 nM. For the compound `C[C@@H](OC(=O)N1CCC(O[C@H]2CC[C@H](Oc3cnc(S(C)(=O)=O)cn3)CC2)CC1)C(F)(F)F` [Compound 83, (R)-1,1,1-trifluoropropan-2-yl 4-((1r,4r)-4-(5-(methylsulfonyl)pyrazin-2-yloxy)cyclohexyloxy)piperidine-1-carboxylate], the “% Inhibition of Glucose Excursion (dose: mg/kg)” value in the assay on male diabetic ZDF rats (1.0 mg/kg p.o. 1 h prior to glucose bolus (3 g/kg)) is on record as 14.4% (1.0); in the assay with male diabetic ZDF rats (3.0 mg/kg p.o. 1 h prior to glucose bolus (3 g/kg)), 44.3% (3.0); in the assay on male diabetic ZDF rats (setting [1]), 57.9% (10). Also, the “blood glucose after challenge with glucose” value with male diabetic ZDF rats is “lowered blood glucose”. In addition, at hGPR119, the EC50 came out at 3 nM. On hGPR119, `CC(C)c1noc(N2CCC(O[C@H]3CC[C@H](Oc4cnc(C(=O)N(C)C)cn4)CC3)CC2)n1` [Compound 98, 5-((1r,4r)-4-(1-(3-isopropyl-1,2,4-oxadiazol-5-yl)piperidin-4-yloxy)cyclohexyloxy)-N,N-dimethylpyrazine-2-carboxamide] showed a concentration giving a half-maximal response (EC50) of 152 nM. The same measure, in the same setting: under `Cc1nc(S(C)(=O)=O)ccc1O[C@H]1CC[C@H](OC2CCN(C(=O)SC(C)C)CC2)CC1` [Compound 116, S-isopropyl 4-((1r,4r)-4-(2-methyl-6-(methylsulfonyl)pyridin-3-yloxy)cyclohexyloxy)piperidine-1-carbothioate] stands 5 nM.
